Experimental data reported in paper PMC11243685, “Synthesis and Enzymatic Evaluation of a Small Library of Substituted Phenylsulfonamido-Alkyl Sulfamates towards Carbonic Anhydrase II” (Molecules, 2024).

Assays:
[1] = target: T1, bovine carbonic anhydrase II (Bos taurus, UniProt P00921); assay: Enzymatic assay of bCA II inhibition, absorbance at 415 nm; format: biochemical; conditions: for inhibition at 1 µM: 1 μM concentration of the inhibitor, triplicate with three technical replicas; for Ki: CA II, from Lineweaver–Burk, Dixon and Cornish Bowden plots, read-out: Inhibition constant Ki;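 for all read-outs here: enzyme is carbonic anhydrase II isolated from bovine erythrocytes, with its activity followed photometrically at 415 nm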
T1 construct: carbonic anhydrase II (bCAII, ≥3000 W-A units/mg from bovine erythrocytes) from Sigma; purchased Sigma (Taufkirchen, Germany); host or cells: isolated from bovine erythrocytes
T1 sequence (P00921 whole entry): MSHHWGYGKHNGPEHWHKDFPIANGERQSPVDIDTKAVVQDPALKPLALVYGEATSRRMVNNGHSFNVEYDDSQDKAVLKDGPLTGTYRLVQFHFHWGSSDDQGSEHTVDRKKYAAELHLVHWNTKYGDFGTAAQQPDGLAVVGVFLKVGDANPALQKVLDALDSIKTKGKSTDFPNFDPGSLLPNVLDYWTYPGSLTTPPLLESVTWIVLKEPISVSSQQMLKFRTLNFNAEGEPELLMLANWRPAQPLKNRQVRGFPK
Protocol: The enzymatic assays have been performed with carbonic anhydrase II (bCAII, ≥3000 W-A units/mg from bovine erythrocytes) from Sigma (Taufkirchen, Germany) using a BMG Labtech Spectrostar Omega apparatus (BMG Labtech, Ortenberg, Germany) measuring λ = 415 nm. Conditions have been described previously [72]. Ki and Ki′ values were determined from Lineweaver–Burk, Dixon and Cornish Bowden plots, respectively.

Row | melting point [°C] | inhibition at 1 µM ([1]; bCA II) [%] | Ki [1] [nM] | mode of inhibition ([1]; bCA II) | SMILES
1 | 95 to 97 | 43.7 ± 0.4 | – | – | CC(C)c1ccc(S(=O)(=O)NCCCCOS(N)(=O)=O)cc1 [35b, 4-[(4-Isopropylphenyl)sulfonamido]butyl Sulfamate]
2 | 83 to 84 | 60.3 ± 0.9 | – | – | CC(C)c1ccc(S(=O)(=O)NCCCOS(N)(=O)=O)cc1 [34b, 3-[(4-Isopropylphenyl)sulfonamido]propyl Sulfamate]
3 | 85 to 86 | 42.8 ± 0.5 | – | – | Cc1ccc(S(=O)(=O)NCCCCCCCOS(N)(=O)=O)cc1 [17b, 7-[(4-Methylphenyl)sulfonamido]heptyl Sulfamate]
4 | 98 to 100 | 54.7 ± 0.6 | – | – | Cc1ccc(S(=O)(=O)NCCCCCCCCOS(N)(=O)=O)cc1 [18b, 8-[(4-Methylphenyl)sulfonamido]octyl Sulfamate]
5 | 66 to 68 | 42.9 ± 0.1 | – | – | Cc1ccc(S(=O)(=O)NCCCCOS(N)(=O)=O)cc1 [14b, 4-[(4-Methylphenyl)sulfonamido]butyl Sulfamate]
6 | 89 to 91 | 10.7 ± 0.4 | – | – | NS(=O)(=O)OCCCCCCCCCCNS(=O)(=O)c1ccccc1 [9b, 10-(Phenylsulfonamido]decyl Sulfamate]
7 | 95 to 97 | 40.8 ± 0.6 | – | – | CC(C)c1ccc(S(=O)(=O)NCCCCCOS(N)(=O)=O)cc1 [36b, 5-[(4-Isopropylphenyl)sulfonamido]pentyl Sulfamate]
8 | 95 to 96 | 28.4 ± 0.4 | – | – | CC(C)(C)c1ccc(S(=O)(=O)NCCCCCCCOS(N)(=O)=O)cc1 [54b, 7-[(4-(tert-Butyl)phenyl)sulfonamido]heptyl Sulfamate]
9 | 70 to 72 | 30.3 ± 0.1 | – | – | CC(C)c1ccc(S(=O)(=O)NCCCCCCCOS(N)(=O)=O)cc1 [38b, 7-[(4-Isopropylphenyl)sulfonamido]heptyl Sulfamate]
10 | 59 to 61 | 56 ± 0.8 | – | – | NS(=O)(=O)OCCCCCCCNS(=O)(=O)c1ccccc1 [6b, 7-(Phenylsulfonamido]heptyl Sulfamate]
11 | 82 to 84 | 55.4 ± 0.7 | – | – | NS(=O)(=O)OCCCCCCCCCNS(=O)(=O)c1ccccc1 [8b, 9-(Phenylsulfonamido]nonyl Sulfamate]
12 | 94 to 95 | 58.9 ± 0.2 | – | – | Cc1ccc(S(=O)(=O)NCCCCCOS(N)(=O)=O)cc1 [15b, 5-[(4-Methylphenyl)sulfonamido]pentyl Sulfamate]
13 | 77 to 78 | 60.2 ± 0.7 | – | – | NS(=O)(=O)OCCCCCCCCNS(=O)(=O)c1ccccc1 [7b, 8-(Phenylsulfonamido]octyl Sulfamate]
14 | 69 to 70 | 28.1 ± 0.5 | – | – | CC(C)c1ccc(S(=O)(=O)NCCCCCCCCOS(N)(=O)=O)cc1 [39b, 8-[(4-Isopropylphenyl)sulfonamido]octyl Sulfamate]
15 | 89 to 90 | 29.1 ± 0.9 | – | – | CC(C)(C)c1ccc(S(=O)(=O)NCCCCCCOS(N)(=O)=O)cc1 [53b, 6-[(4-(tert-Butyl)phenyl)sulfonamido]hexyl Sulfamate]
16 | 88 to 89 | 35.9 ± 0.4 | – | – | CC(C)(C)c1ccc(S(=O)(=O)NCCCCCOS(N)(=O)=O)cc1 [52b, 5-[(4-(tert-Butyl)phenyl)sulfonamido]pentyl Sulfamate]
17 | 92 to 93 | 20.6 ± 0.6 | – | – | CC(C)(C)c1ccc(S(=O)(=O)NCCCCCCCCCCOS(N)(=O)=O)cc1 [57b, 10-[(4-(tert-Butyl)phenyl)sulfonamido]decyl Sulfamate]
18 | 49 to 50 | 40.3 ± 0.7 | – | – | Cc1ccc(S(=O)(=O)NCCCCCCOS(N)(=O)=O)cc1 [16b, 6-[(4-Methylphenyl)sulfonamido]hexyl Sulfamate]
19 | 79 to 81 | 21.3 ± 1 | – | – | CC(C)(C)c1ccc(S(=O)(=O)NCCCCCCCCOS(N)(=O)=O)cc1 [55b, 8-[(4-(tert-Butyl)phenyl)sulfonamido]octyl Sulfamate]
20 | 55 to 57 | 27.1 ± 0.9 | – | – | Cc1cccc(S(=O)(=O)NCCCCCCCOS(N)(=O)=O)c1 [24b, 7-[(3-Methylphenyl)sulfonamido]heptyl Sulfamate]
21 | 102 to 103 | 45.9 ± 0.7 | – | – | CC(C)c1ccc(S(=O)(=O)NCCCCCCOS(N)(=O)=O)cc1 [37b, 6-[(4-Isopropylphenyl)sulfonamido]hexyl Sulfamate]
22 | 106 to 107 | 10 ± 0.6 | – | – | CC(C)(C)c1ccc(S(=O)(=O)NCCCCCCCCCOS(N)(=O)=O)cc1 [56b, 9-[(4-(tert-Butyl)phenyl)sulfonamido]nonyl Sulfamate]
23 | 81 to 82 | 63.2 ± 0.4 | 840 ± 20 | – | CC(C)c1ccc(S(=O)(=O)NCCOS(N)(=O)=O)cc1 [33b, 2-[(4-Isopropylphenyl)sulfonamido]ethyl Sulfamate]
24 | 54 to 56 | 38.8 ± 0.1 | – | – | Cc1cccc(S(=O)(=O)NCCCCCCCCOS(N)(=O)=O)c1 [25b, 8-[(3-Methylphenyl)sulfonamido]octyl Sulfamate]

Second part, the molecule before the results:

Row | SMILES | melting point [°C] | inhibition at 1 µM ([1]; bCA II) [%] | Ki [1] [nM] | mode of inhibition ([1]; bCA II)
25 | Cc1cccc(S(=O)(=O)NCCCCOS(N)(=O)=O)c1 [21b, 4-[(3-Methylphenyl)sulfonamido]butyl Sulfamate] | 62 to 64 | 32.2 ± 0.6 | – | –
26 | Cc1cccc(S(=O)(=O)NCCCCCCOS(N)(=O)=O)c1 [23b, 6-[(3-Methylphenyl)sulfonamido]hexyl Sulfamate] | 74 to 75 | 51.8 ± 0.7 | – | –
27 | CC(C)(C)c1ccc(S(=O)(=O)NCCOS(N)(=O)=O)cc1 [49b, 2-[(4-(tert-Butyl)phenyl)sulfonamido]ethyl Sulfamate] | 92 to 93 | 75.6 ± 0.4 | 670 ± 50 | competitive inhibitor
28 | NS(=O)(=O)OCCCCCCCCCNS(=O)(=O)c1ccc(C2CCCCC2)cc1 [75b, 9-[(4-Cyclohexylphenyl)sulfonamido]nonyl Sulfamate] | 88 to 89 | 32.1 ± 0.8 | – | –
29 | NS(=O)(=O)OCCCCCCCCCCNS(=O)(=O)c1ccc(C23CC4CC(CC(C4)C2)C3)cc1 [79b, 10-[(4-(Adamantan-1-yl)phenyl)sulfonamido]decyl Sulfamate] | 87 to 89 | 40.1 ± 0.8 | – | –
30 | NS(=O)(=O)OCCCCCCNS(=O)(=O)c1ccc(C2CCCCC2)cc1 [72b, 6-[(4-Cyclohexylphenyl)sulfonamido]hexyl Sulfamate] | 86 to 88 | 8.6 ± 0.6 | – | –
31 | Cc1ccccc1S(=O)(=O)NCCCOS(N)(=O)=O [27b, 3-[(2-Methylphenyl)sulfonamido]propyl Sulfamate] | 68 to 70 | 50 ± 0.8 | – | –
32 | NS(=O)(=O)OCCCCCCCCCCCCNS(=O)(=O)c1ccccc1 [11b, 12-(Phenylsulfonamido]dodecyl Sulfamate] | 102 to 103 | 5.9 ± 0.9 | – | –
33 | Cc1ccc(S(=O)(=O)NCCOS(N)(=O)=O)cc1 [12b, 2-[(4-Methylphenyl)sulfonamido]ethyl Sulfamate] | 79 to 81 | 75.8 ± 0.6 | 760 ± 30 | –
34 | NS(=O)(=O)OCCCNS(=O)(=O)c1ccccc1 [2b, 3-(Phenylsulfonamido]propyl Sulfamate] | 64 to 66 | 39.9 ± 0.4 | – | –
35 | CC(C)(C)c1ccc(S(=O)(=O)NCCCOS(N)(=O)=O)cc1 [50b, 3-[(4-(tert-Butyl)phenyl)sulfonamido]propyl Sulfamate] | 85 to 86 | 63.4 ± 0.6 | – | –
36 | Cc1cccc(S(=O)(=O)NCCCOS(N)(=O)=O)c1 [20b, 3-[(3-Methylphenyl)sulfonamido]propyl Sulfamate] | 73 to 74 | 48.4 ± 0.1 | – | –
37 | NS(=O)(=O)OCCCCCCNS(=O)(=O)c1ccccc1 [5b, 6-(Phenylsulfonamido]hexyl Sulfamate] | 64 to 66 | 56 ± 0.5 | – | –
38 | Cc1cccc(S(=O)(=O)NCCOS(N)(=O)=O)c1 [19b, 2-[(3-Methylphenyl)sulfonamido]ethyl Sulfamate] | 36 to 38 | 59.5 ± 0.1 | – | –
39 | NS(=O)(=O)OCCCCCCCCCCCNS(=O)(=O)c1ccccc1 [10b, 11-(Phenylsulfonamido]undecyl Sulfamate] | 95 to 97 | 7.2 ± 0.9 | – | –
40 | Cc1ccccc1S(=O)(=O)NCCOS(N)(=O)=O [26b, 2-[(2-Methylphenyl)sulfonamido]ethyl Sulfamate] | 70 to 72 | 69.1 ± 0.7 | 1100 ± 30 | –
41 | CC(C)(C)c1ccc(S(=O)(=O)NCCCCOS(N)(=O)=O)cc1 [51b, 4-[(4-(tert-Butyl)phenyl)sulfonamido]butyl Sulfamate] | 100 to 102 | 44.9 ± 0.4 | – | –
42 | NS(=O)(=O)OCCCNS(=O)(=O)c1ccc(C2CCCCC2)cc1 [69b, 3-[(4-Cyclohexylphenyl)sulfonamido]propyl Sulfamate] | 113 to 114 | 43.1 ± 1.5 | – | –
43 | NS(=O)(=O)OCCCCCCCCCNS(=O)(=O)c1ccc(C23CC4CC(CC(C4)C2)C3)cc1 [78b, 9-[(4-(Adamantan-1-yl)phenyl)sulfonamido]nonyl Sulfamate] | 94 to 96 | 36.1 ± 1.8 | – | –
44 | Cc1ccc(S(=O)(=O)NCCCOS(N)(=O)=O)cc1 [13b, 3-[(4-Methylphenyl)sulfonamido]propyl Sulfamate] | 86 to 87 | 63.8 ± 0.8 | – | –
45 | Cc1cccc(S(=O)(=O)NCCCCCOS(N)(=O)=O)c1 [22b, 5-[(3-Methylphenyl)sulfonamido]pentyl Sulfamate] | 67 to 68 | 49.1 ± 0.2 | – | –
46 | O=S(=O)(NCCCCCCCCCO)c1ccccc1 [8a, N-(9-Hydroxynonyl)benzene Sulfonamide] | 40 to 41 | – | – | –
